Source: patent US20070128303A1, “Anti-inflammatory, cytoprotective factor derivable from a probiotic organism” (THE UNIVERSITY OF CHICAGO, priority 2004, published 2007)
One block for each compound: values may come before it. Starred links: 1 amine or outer side, 2 acyl side, 3 side chain; linkers in the order of their positions; H or OH if unused. Positions of bridges follow the written chain, without caps; N, C: chain ends. Non-standard residues stand in square brackets, D forms with d. Residues, ends and D or L forms follow the SMILES beside them. *: point of attachment. Trp(2-yl) = O=C([C@H](Cc1c([*:3])[nH]c2ccccc12)N[*:1])[*:2]; Leu(4R-OH,5-OH) = C[C@](O)(CO)C[C@H](N)C(=O)O; cisHyp = O=C(O)[C@@H]1C[C@H](O)CN1; Cbz = O=C(OCc1ccccc1)*

What was measured:
[1] = system: F/G actin; experiment: F/G actin assay, YAMC cells under oxidant stress; assay type: cell-based, mouse; conditions: phalloidin 30 μg/ml 2 hours; cytochalasin D 10 μg/ml 15 min
Experimental: F/G actin assays were conducted by initially shifting confluent YAMC cell monolayers to 37° C. in IFN-γ-free medium and treating with VSL#3-CM overnight. Prior to assessment, cells were treated with phalloidin (30 μg/ml for 2 hours; Molecular probes, Eugene, Oreg.), cytochalasin D (10 μg/ml for 15 min), or the oxidant monochloramine (0.6 mM for 30 minutes). Cells were rinsed in PBS, harvested, centrifuged (14,000×g for 20 seconds at room temperature) and the pellets resuspended in 200 μl of 30° C. lysis buffer (1 mM ATP, 50 mM PIPES, pH 6.9, 50 mM NaCl, 5 mM MgCl2, 5 mM EGTA, 5% (vol/vol) glycerol, 0.1% (vol/vol) Nonidet P-40, Tween 20, and Triton X-100, containing complete protease inhibitor cocktail). Cells were homogenized by gently pipetting up and down ten times and incubated at 30° C. for 10 minutes. Samples were centrifuged at 100,000×g for 60 minutes at 30° C. and the supernatants were removed for determination of G actin content. Pellets containing F-actin were resuspended in 200 μl of 4° C. distilled water with 1 μM cytochalasin D and left on ice for 60 minutes. Then, 20 μl of each extraction was removed, 6 μl 3× Laemmli stop solution was added and the samples were heated to 65° C. for 10 minutes. Samples were resolved by 12.5% SDS-PAGE and immediately transferred to PVDF membranes. […]

[2] = system: YAMC cells
[3] = molecular target: T1, trypsin-like activity of the proteasome (Mus musculus, UniProt P70195); experiment: Proteasome assay on YAMC cell lysates, substrate Bz-val-gly-arg-AMC; assay type: cell-based; conditions: VSL#3-CM 16 hours; lactacystin 10 μM
T1 construct: endogenous in cells; host or cells: YAMC cell lysates
T1 sequence (P70195 44-277): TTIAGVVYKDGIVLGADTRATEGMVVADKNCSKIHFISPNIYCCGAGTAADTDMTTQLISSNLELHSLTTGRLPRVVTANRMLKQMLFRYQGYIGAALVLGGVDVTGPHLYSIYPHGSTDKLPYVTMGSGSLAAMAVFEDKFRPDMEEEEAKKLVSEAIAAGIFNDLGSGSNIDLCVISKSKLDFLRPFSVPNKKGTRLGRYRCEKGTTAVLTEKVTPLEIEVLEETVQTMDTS

[4] = molecular target: T2, PGPH, or caspase-like, activity of the proteasome (Mus musculus, UniProt Q60692); experiment: Proteasome assay on YAMC cell lysates, substrate Z-leu-leu-glu-AMC; assay type: cell-based; conditions: VSL#3-CM 16 hours, about equivalent to 10 μM lactacystin; lactacystin 10 μM
T2 construct: endogenous in cells; host or cells: YAMC cell lysates
T2 sequence (Q60692 1-238): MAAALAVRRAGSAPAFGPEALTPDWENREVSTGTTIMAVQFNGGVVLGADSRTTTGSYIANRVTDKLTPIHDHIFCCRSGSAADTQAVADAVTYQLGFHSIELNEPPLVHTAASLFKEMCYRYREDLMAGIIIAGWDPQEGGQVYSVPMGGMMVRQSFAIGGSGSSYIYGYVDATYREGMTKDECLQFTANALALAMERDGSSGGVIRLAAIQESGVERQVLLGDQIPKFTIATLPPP

[5] = system: Hsp25 and Hsp72; experiment: Immunoblot of Hsp25 and Hsp72 expression in YAMC cells; assay type: cell-based, mouse
Experimental: Twenty micrograms of protein per lane were resolved on 12.5% SDS-PAGE and transferred in 1× Towbin buffer (composition 25 mM Tris, 192 mM glycine, pH 8.8, 15% vol/vol methanol) onto PVDF membranes (Polyscreen, Perkin-Elmer NEN, Boston, Mass.) as previously described (Kojima, 2003), incorporated herein by reference. Membranes were blocked in 5% (wt/vol) non-fat milk in TBS-Tween (Tris-buffered saline (150 mM NaCl, 5 mM KCl, 10 mM Tris, pH 7.4) with 0.05% (vol/vol) Tween 20) for one hour at room temperature. For anti-ubiquitin blots, membranes were blocked in 3% bovine serum albumin (Fisher, Pittsburgh, Pa.). Primary antibody was added to TBS-Tween and incubated overnight at 4° C. with a specific anti-Hsp 25 antibody (SPA 801, Stressgen, Victoria, BC, Canada), anti-Hsp 72 antibody (SPA 810, Stressgen), anti-Hsc 73 antibody (SPA 815, Stressgen), anti-IκB-α antibody (sc-1643, Santa Cruz Biotechnology, Santa Cruz, Calif.), anti-phospho IκB-α antibody (sc-8404, Santa Cruz), or anti-ubiquitin antibody (PW 8810, Affiniti Research Products Ltd, Exeter, U.K.). Blots were then washed in TBS-Tween five times for 10 minutes each at room temperature before incubation with peroxidase-conjugated secondary antibodies (Jackson Immunoresearch Labs, Inc. Fort Washington, Pa.) for 1 hour at room temperature. […]

[6] = system: NF-κB; experiment: NF-κB ELISA assay (Active Motif), TNF-α stimulation; assay type: cell-based; conditions: TNF-α 30 ng/ml
Experimental: The proteasome inhibitors in VSL#3 may be small organic molecules. Some proteasome inhibitors found in nature are small molecular weight organic esters or organic acid derivatives, such as those in green tea. An ether extraction of the VSL#3-CM was undertaken to determine if bioactive factors could be concentrated to produce a more consistent and robust response. […] TNF-α stimulation (30 ng/ml) alone caused a significant increase in NF-κB activation (second bar from left).

[7] = molecular target: T3, 20S proteasomal component (barrel) (Homo sapiens, UniProt P28074); experiment: In vitro 20S proteasome assay (Calbiochem); assay type: biochemical; conditions: 20S component, slopes compared
T3 construct: purchased Calbiochem
Experimental: Proteasome activity from cell lysates was determined using a 20S Proteasome assay kit (Calbiochem, San Diego, Calif.). Briefly, ice-cold cell lysate containing 20 μg protein was added to proteasome assay reaction buffer (25 mm HEPES, 0.5 mM EDTA, pH 7.6) activated with 0.03% (wt/vol) SDS. The sample was allowed to come to room temperature, then placed in a quartz cuvette and 10 μM of the substrate suc-leu-leu-val-tyr-AMC (SLLVY-AMC), Bz-val-gly-arg-AMC, or Z-leu-leu-glu-AMC was added. The SLLVY-AMC substrate is cleaved by the chymotrypsin-like activity of the proteasome, the Bz-val-gly-arg-AMC substrate is cleaved by the trypsin-like activity of the proteasome, and the Z-leu-leu-glu-AMC substrate is cleaved by the PGPH, or caspase-like, activity of the proteasome. Proteasome activity was determined by measuring the fluorogenic signal generated by cleavage of AMC (7-amino-4-methylcoumarin) from the peptide moiety of the proteasome substrate. Fluorescence (excitation at 380 nm, emission at 460 nm) was measured every minute for the first 10 minutes, then every 15 minutes thereafter in a Hitachi F-2000 fluorometer (Hitachi, Japan). Cells were treated with either MG132 (25 μM) or lactacystin (10 μM) as a positive inhibitor control. Untreated cells were treated with DMSO as a vehicle control for MG132 and lactacystin. Experiments were performed in triplicate. […]

SMILES: C[C@@H]1NC(=O)[C@H](C[C@@](C)(O)CO)NC(=O)[C@@H]2Cc3c([nH]c4ccccc34)SC[C@H](NC(=O)[C@@H]([C@H](C)O)NC1=O)C(=O)N1C[C@@H](O)C[C@H]1C(=O)N[C@@H](C)C(=O)N2 [phalloidin] (cyclo(A[dT]C[cisHyp]A[Trp(2-yl)][Leu(4R-OH,5-OH)]); thioether 3-6)
effect on F- and G-actin, control agents [1]: increasing the amount of F-actin

effect on trypsin-like activity of the proteasome [3]: inhibits
effect on caspase-like activity of the proteasome [4]: only a weak inhibitor
SMILES: CC(=O)N[C@@H](CSC(=O)[C@]1([C@@H](O)C(C)C)NC(=O)[C@H](C)[C@@H]1O)C(=O)O [Lactacystin]
cell toxicity limiting usable concentration ([2]; concentrations higher than 10 μM): limited due to cell toxicity

SMILES: C=C1[C@@H](C)[C@H]2[C@H](Cc3ccccc3)NC(=O)[C@]23[C@H](OC(C)=O)/C=C/[C@@](C)(O)C(=O)[C@@H](C)C/C=C/[C@H]3[C@@H]1O [cytochalasin D]
effect on F- and G-actin, control agents [1]: greatly increases the amount of globular (G) actin

SMILES: CC(C)C[C@@H](C=O)NC(=O)[C@H](CC(C)C)NC(=O)[C@H](CC(C)C)NC(=O)OCc1ccccc1 [MG132] (Cbz-Leu-Leu-Leu-aldehyde)
appearance of Hsp signal ([5]; MG132 25 μM time course): 7 to 14 h
induction of Hsp25 and Hsp72 ([5]; MG132 25 μM, more robust than thermal stress): very strong induction
change in morphology and loss of cell viability ([2]; 16 hours, MG132 at 25 μM, phase-contrast photographs): dramatic change in morphology and loss of cell viability
cell viability compared to untreated control cells ([2]; VSL#3-CM 24 hours of treatment, MG132 prolonged exposure): markedly increased cell death
effect on TNF-α-stimulated NF-κB activity [6]: significantly inhibited
effect on in vitro proteasomal activity [7]: significant inhibition
